# Data reported in PubChem BioAssay AID2305 (GlaxoSmithKline (GSK), 2010).
# System: P. falciparum 3D7 growth, pLDH absorbance
# Experiment: P. falciparum 3D7 growth inhibition, dose response, strain 3D7 (AID 2305)
row,SMILES,IC50
1,O=[N+]([O-])c1cnc(Nc2ccccc2O)nc1Nc1ccccc1O,900 nM
2,CNC(=O)CNC(=O)COc1cccc2ccccc12,230 nM
3,OC(c1cc(C(F)(F)F)nc2c(F)cccc12)C1CCCCN1 (stereo unspecified),780 nM
4,c1ccc(CCNCc2cccc(-c3ccc(CNc4ccc5ncccc5c4)cc3)c2)cc1,810 nM
5,CC[C@H]1CN2CC[C@H]1C[C@H]2C(O)c1cc(OC)nc2ccccc12 (stereo partly specified),140 nM
6,O=C(Nc1cccc(C(F)(F)F)c1)c1ccc(S(=O)(=O)NC2CCN(CC3CCCCC3)C2)cc1 (stereo unspecified),790 nM
7,COCCN1CCC(CN(C)CC(C)(C)c2nc(-c3ccc(Cl)c(O)c3)c(-c3ccncc3)[nH]2)CC1,1030 nM
8,Cn1cc(CCNc2ccnc(N3CCC(c4ncc[nH]4)CC3)n2)c2ccccc21,1200 nM
9,O=S(=O)(Nc1cc2c(cc1O)CCN(C1CCC1)CC2)c1ccc(Oc2ccc(F)cc2)cc1,780 nM
10,Cc1cc(CNCCCCCCCNCc2ccc(Cl)cc2)ccc1O,980 nM
11,OCCc1ccc(Nc2nccc(-c3nnc4ccccn34)n2)cc1,900 nM
12,COc1ccc(Nc2nc(N3CCCC3)c3ccccc3n2)cc1,750 nM
13,Cc1cc(C(=O)NC2CCN(CC3(c4ccc(Cl)cc4)CCC3)CC2)on1,90 nM
14,COc1cccc(OC)c1OCCCON1C(N)=NC(N)=NC1(C)C,10 nM
15,NC1CCN(c2nc(NCCCc3ccc(O)cc3)nc(NCc3ccccc3-c3ccccc3)n2)CC1,680 nM
16,CNCCCCCCc1ccc(CC(C)NCC(O)c2cccc(Cl)c2)cc1 (stereo unspecified),850 nM
17,COc1cc(CC2c3cc(O)c(Cl)cc3CCN2C)c(OC)cc1C (stereo unspecified),710 nM
18,COc1cccc(C(=O)Nc2ccc(Nc3nc(C)cc(N(C)C)n3)cc2)c1OC,1020 nM
19,Fc1cc(Cl)ccc1Nc1ccnc2cc(I)ccc12,1130 nM
20,Cc1cc(CN2C(=O)C(c3ccccc3)(c3ccccc3)N=C2N)c(C(F)(F)F)o1,960 nM
21,O=C(NCC1CCN(Cc2ccc(F)cc2)C1)c1cc(-c2cccc(C(F)(F)F)c2)cs1 (stereo unspecified),960 nM
22,O=C(Nc1ccccc1F)NC1CCN(c2ccnc(Nc3ccc(F)cc3)n2)CC1,750 nM
23,NS(=O)(=O)c1ccc(CNc2ccc3ncc(-c4ccc(OC(F)(F)F)cc4)n3n2)cc1,580 nM
24,COc1ccc(-c2cccc(CNC3CCN(CC4Cn5c(=O)ccc6ccc(F)c4c65)CC3)c2)cc1 (stereo unspecified),1090 nM
25,CC(O)C1CCCCN1C(=O)c1ccc(-c2ccc(-c3nc4ccccc4[nH]3)s2)cc1 (stereo unspecified),970 nM
26,Cc1cc(NC(=O)Nc2cccc(N(C)C)c2)c2ccccc2n1,200 nM

row,SMILES,IC50
1,CCOC(=O)c1c(C)n(-c2ccccc2)c2ccc(OC(=O)COc3ccc(Cl)cc3Cl)cc12,430 nM
2,O=[N+]([O-])c1ccc(-n2nc(-c3cccnc3)n(Cc3ccco3)c2=S)c(Cl)c1,200 nM
3,COc1ccc(CC2(c3ccc(F)cc3)N=C(N)N(CCCc3cccnc3)C2=O)cc1 (stereo unspecified),670 nM
4,COc1ccc(CCn2c(=N)c(C(=O)NCc3cccnc3)cc3c(=O)n4ccccc4nc32)cc1,880 nM
5,COc1cccc(CNC(=O)NC2CCN(c3ccnc(Nc4ccc(F)cc4)n3)C2)c1 (stereo unspecified),810 nM
6,Oc1ccc2ccccc2c1C=NNc1nc(Nc2ccccc2)nc(N2CCOCC2)n1,890 nM
7,COCCNCc1ccc(-c2ccc3c(Nc4ccc(F)cc4Cl)ccnc3c2)o1,210 nM
8,O=C(/C=C/c1ccc(Cl)c(Cl)c1)NCCCCCN1CCC(NC(=S)Nc2ccc(Cl)cc2)CC1,440 nM
9,N#CCCN1CCN(Cc2cccc(-c3ccc(-c4nc5ccccc5[nH]4)cc3)c2)CC1,1020 nM
10,CO/C(=C\C=C\c1cc2cc(Cl)c(Cl)cc2[nH]1)C(=O)NCCCN1CCN(c2cccc(CCCO)c2)CC1,1030 nM
11,O=S(=O)(ON=C1CCc2ccccc21)c1ccc(Cl)cc1,1310 nM
12,Cc1nc(N)nc(N)c1-c1ccc(Cl)cc1,770 nM
13,O=C1CSc2ccc(CNC3CCN(CCc4c(Cl)cnc5ccc(F)cc45)CC3)nc2N1,430 nM
14,O=c1cc(NC[C@@H]2CCC[C@@H]2NCc2ccc(Cl)c(Cl)c2)[nH]c2ccccc12,600 nM
15,CC[C@H](NC(=O)c1c(CN2CCC(N3CCCCC3)CC2)c(-c2ccccc2)nc2c(Cl)c(O)ccc12)c1ccccc1,730 nM
16,O=C(NCCCN1CCN(c2cccc(Cl)c2)CC1)c1ccc(-c2nc3cc(Cl)c(Cl)cc3[nH]2)cc1,700 nM
17,CCCCCCCC1CC(CC(=O)Nc2ccnc3ccc(OC)cc23)CN1C(=O)OC(C)(C)C (stereo unspecified),710 nM
18,CC(Oc1c(C2CCN(CCCCNC(=O)c3ccc(-c4ccc(Cl)cc4)cc3)CC2)ccc2c1CCCC2)C(N)=O (stereo unspecified),950 nM
19,O=C(Nc1cc(Cl)cc(Cl)c1)Nc1ccnc2ccccc12,750 nM
20,Cc1cc(N2Cc3ccccc3C2)nc(Nc2ccc(S(=O)(=O)N3CCOCC3)cc2)n1,1110 nM
21,CN1CCN(CC2(Nc3nccc(NCCc4cn(C)c5ccccc45)n3)CCCCC2)CC1,1810 nM
22,CCCCNCC(O)COc1ccccc1-c1ccc(N/N=C/c2cccc3ccccc23)nn1 (stereo unspecified),890 nM
23,CCCCCCC(C)c1cc(O)c2c(c1)OC(=O)CC2(CC)c1ccccn1 (stereo unspecified),330 nM
24,O=C(N[C@@H](Cc1ccccc1)[C@H](O)CNCCC(F)(F)F)c1cccc(CCC2CC2)c1,1020 nM
25,CCc1ccc(CN(Cc2ccc(C)cc2)Cc2ccc(NC(C)=O)cc2)cc1,960 nM
